Legend:
[1] = 101.33 kPa, Liquid, Vibrating tube method
[2] = molar heat capacity at constant pressure; settings: 101.33 kPa, Liquid, Small sample (50 mg) DSC

ClCCCBr [1-bromo-3-chloropropane]
[1]
Settings | mass density [kg/m3]
288.15 K | 1601.96
298.15 K | 1588.17
308.15 K | 1574.87
318.15 K | 1560.65

ClCCBr [1-bromo-2-chloroethane]
[1]
Settings | mass density [kg/m3]
288.15 K | 1742.45
298.15 K | 1726.56
308.15 K | 1710.57
318.15 K | 1693.61

ClCCCCCBr [1-bromo-5-chloropentane]
[1]
Settings | mass density [kg/m3]
288.15 K | 1409.7
298.15 K | 1399.37
308.15 K | 1388.77
318.15 K | 1377.96

BrCCCCCCCCCCCCBr [1,12-dibromododecane]
[2]
Settings | molar heat capacity at constant pressure [J/K/mol]
310.65 K | 432.62
312.15 K | 433.39
313.65 K | 434.17
315.15 K | 434.98
316.65 K | 435.79
318.15 K | 436.62
319.65 K | 437.46
321.15 K | 438.31
322.65 K | 439.17
324.15 K | 440.04
325.65 K | 440.91
327.15 K | 441.8
328.65 K | 442.68
330.15 K | 443.57
331.65 K | 444.47
333.15 K | 445.36
334.65 K | 446.26
336.15 K | 447.15
337.65 K | 448.04
339.15 K | 448.93
340.65 K | 449.82
342.15 K | 450.69
343.65 K | 451.57
345.15 K | 452.43
346.65 K | 453.29
348.15 K | 454.13
349.65 K | 454.96
351.15 K | 455.78
352.65 K | 456.59
354.15 K | 457.38
355.15 K | 457.9

BrCCCCCCCCCCCBr [1,11-dibromoundecane]
[2]
Settings | molar heat capacity at constant pressure [J/K/mol]
285.15 K | 389.4
286.65 K | 389.99
288.15 K | 390.59
289.65 K | 391.2
291.15 K | 391.83
292.65 K | 392.47
294.15 K | 393.12
295.65 K | 393.79
297.15 K | 394.47
298.15 K | 394.92
298.65 K | 395.16
300.15 K | 395.85
301.65 K | 396.56
303.15 K | 397.28
304.65 K | 398.01
306.15 K | 398.75
307.65 K | 399.5
309.15 K | 400.25
310.65 K | 401.02
312.15 K | 401.79
313.65 K | 402.57
315.15 K | 403.35
316.65 K | 404.15
318.15 K | 404.94
319.65 K | 405.75
321.15 K | 406.56
322.65 K | 407.37
324.15 K | 408.19
325.65 K | 409.01
327.15 K | 409.84
328.65 K | 410.67
330.15 K | 411.5
331.65 K | 412.33
333.15 K | 413.17
334.65 K | 414.01
336.15 K | 414.84
337.65 K | 415.68
339.15 K | 416.53
340.65 K | 417.37
342.15 K | 418.21
343.65 K | 419.04
345.15 K | 419.88
346.65 K | 420.72
348.15 K | 421.55
349.65 K | 422.38
351.15 K | 423.21
352.65 K | 424.04
354.15 K | 424.86
355.15 K | 425.41

BrCCCCCCCCCBr [1,9-dibromononane]
[2]
Settings | molar heat capacity at constant pressure [J/K/mol]
286.65 K | 330.9
288.15 K | 331.44
289.65 K | 332
291.15 K | 332.56
292.65 K | 333.14
294.15 K | 333.72
295.65 K | 334.3
297.15 K | 334.9
298.15 K | 335.29
298.65 K | 335.5
300.15 K | 336.1
301.65 K | 336.72
303.15 K | 337.34
304.65 K | 337.96
306.15 K | 338.59
307.65 K | 339.23
309.15 K | 339.87
310.65 K | 340.52
312.15 K | 341.17
313.65 K | 341.83
315.15 K | 342.49
316.65 K | 343.16
318.15 K | 343.83
319.65 K | 344.5
321.15 K | 345.18
322.65 K | 345.86
324.15 K | 346.54
325.65 K | 347.22
327.15 K | 347.91
328.65 K | 348.6
330.15 K | 349.3
331.65 K | 349.99
333.15 K | 350.69
334.65 K | 351.39
336.15 K | 352.08
337.65 K | 352.78
339.15 K | 353.49
340.65 K | 354.19
342.15 K | 354.89
343.65 K | 355.59
345.15 K | 356.29
346.65 K | 356.99
348.15 K | 357.69
349.65 K | 358.39
351.15 K | 359.09
352.65 K | 359.79
354.15 K | 360.49
355.15 K | 360.95

ClCCCCBr [1-bromo-4-chlorobutane]
[1]
Settings | mass density [kg/m3]
288.15 K | 1496.19
298.15 K | 1485.12
308.15 K | 1473.33
318.15 K | 1460.96

ClCCCCCCBr [1-bromo-6-chlorohexane]
[1]
Settings | mass density [kg/m3]
288.15 K | 1345.17
298.15 K | 1336.47
308.15 K | 1327.17
318.15 K | 1316.45

BrCCCCCCCCBr [1,8-dibromooctane]
[2]
Settings | molar heat capacity at constant pressure [J/K/mol]
288.15 K | 302.23
289.65 K | 302.83
291.15 K | 303.43
292.65 K | 304.03
294.15 K | 304.63
295.65 K | 305.23
297.15 K | 305.83
298.15 K | 306.23
298.65 K | 306.43
300.15 K | 307.03
301.65 K | 307.63
303.15 K | 308.23
304.65 K | 308.82
306.15 K | 309.42
307.65 K | 310.02
309.15 K | 310.61
310.65 K | 311.21
312.15 K | 311.8
313.65 K | 312.39
315.15 K | 312.99
316.65 K | 313.58
318.15 K | 314.17
319.65 K | 314.76
321.15 K | 315.35
322.65 K | 315.94
324.15 K | 316.53
325.65 K | 317.12
327.15 K | 317.71
328.65 K | 318.3
330.15 K | 318.88
331.65 K | 319.47
333.15 K | 320.05
334.65 K | 320.64
336.15 K | 321.22
337.65 K | 321.81
339.15 K | 322.39
340.65 K | 322.97
342.15 K | 323.56
343.65 K | 324.14
345.15 K | 324.72
346.65 K | 325.3
348.15 K | 325.88
349.65 K | 326.46
351.15 K | 327.04
352.65 K | 327.62
354.15 K | 328.19
355.15 K | 328.58

From the NIST ThermoML archive (doi:10.1021/je201002j)
